Laboratory results reported in paper PMC6154719 (Molecules : A Journal of Synthetic Chemistry and Natural …, 2017).

Assays:
Assay type in all cases: in vitro ADME
CYP2B/3A = CYP2B/3A (BROD activity, benzyloxyresorufin O-debenzylation) in rat liver microsomes; conditions: for IC50: probe benzyloxyresorufin; for Specific Activity, CYP2B/3A (BROD activity): in the presence of 100 µM sesquiterpene, control 1.74 ± 0.02
Protocol: (§1) Enzyme activities were assayed in human and rat liver cytosolic and microsomal fractions. The enzyme assays (each performed in 4–8 replicates) were repeated three times (HPLC measurement of CYP activities was repeated only twice, Table 3). Inhibition studies were carried out by incubation of specific substrates in the presence of sesquiterpenes (in the range 0–100 µM).
(§2) Enzyme activities of individual CYP forms were measured according to established protocols. The following microsomal CYP activities were tested: CYP2A6, coumarin 7-hydroxylation; CYP2B6, 7-ethoxy-4-(trifluoromethyl)coumarin 7-deethylation, CYP2C9, diclofenac 4′-hydroxylation, CYP2C19 assay, S-mephenytoin 4′-hydroxylation, CYP2D6 on bufuralol 1′-hydroxylation, CYP2E1, chlorzoxazone 6-hydroxylation and CYP3A4, testosterone 6β-hydroxylation, and midazolam 1′-hydroxylation. Activities were measured using the Prominence HPLC system (Shimadzu, Kyoto, Japan), equipped with a LiChroCART 250-4 LiChrospher 100 RP-18 column or Chromolith®HighResolution RP-18 end-capped column (Merck, Darmstadt, Germany) and UV or fluorescence detection, according to the cited literature. Further incubation details are described either in the corresponding references, as well as in the papers from this laboratory e.g., [42, 43, 44]. CYP1A2, 7-ethoxyresorufin O-deethylation, and CYP3A4/2B6 (human), CYP2B1 (rat), benzyloxyresorufin O-debenzylation were measured using the microplate reader Tecan Infinite M200 (Tecan Group; Mannedorf, Switzerland).
(§3) Sesquiterpenes CNER, TNER and FAR, non-volatile liquids, were pipetted, and proper concentration was calculated according to density. All compounds were dissolved in DMSO. The final solvent concentration in the inhibition assays was 1%, which had no effect on the enzyme activity (data not shown). Non-enzymatic interference of sesquiterpenes with some compounds in the reaction mixtures (e.g., fluorescence enhancing or quenching) was considered and excluded. All experiments were performed in three replicates, if not stated otherwise.
(§4) CNER, TNER and FAR at a fixed concentration of 100 µM were screened for inhibition of cytosolic AKR1A1, AKR1C, CBR1, NQO1, SULT, and GST, and microsomal CYPs and UGT. The degree of inhibition caused by sesquiterpenes was compared with non-inhibited control reactions, which contained solvent without sesquiterpenes.
(§5) The concentration of sesquiterpenes required for 50% inhibition of enzyme activity, the IC50 value, was determined. Their final concentrations in the reaction mixture were proposed to cover the entire inhibitory range of these compounds (1–100 µM). The IC50 values for each sesquiterpene were determined by plotting sigmoidal dose response curves of specific enzyme activity vs. logarithm of sesquiterpene concentration using GraphPad Prism version 6.07 for Windows (GraphPad Software Inc., La Jolla, CA, USA).
(§6) The kinetic inactivation study of the CYP1A2 (EROD activity) and CYP2B/3A (BROD activity), both in rat and human, with TNER, was performed to find out the mechanism of enzyme inhibition by this sesquiterpene. Mechanism of EROD and BROD inhibition was tested at the final ethoxyresorufin or benzyloxyresorufin concentrations 0.5–5.0 µM. The concentration of TNER was 5.0 µM.
(§7) Experimental data were fitted to the Michaelis-Menten equation, basic kinetic parameters were determined using the program GraphPad Prism version 6.07 for Windows. The type of inhibition was estimated using a Lineweaver-Burk (double-reciprocal) plot.

AKR1C = AKR1C activity in human liver subcellular fraction; conditions: 100 µM sesquiterpene, control 23.5 ± 2.4
Protocol: as §1
(§8) The assays of all other enzymes were based on spectrophotometric detection of product formed or detection of decreasing substrate/cofactor levels using microplate reader Tecan Infinite M200 in cytosolic or microsomal fractions. Enzyme activities were determined using slight modifications of previously-published methods: carbonyl reducing enzymes (AKR1A, AKR1C, CBR1 [45], NQO1 [46]), UDP-glucuronosyltransferase (UGT [47]), sulfotransferase (SULT [48]), and cytosolic glutathione-S-transferase (GST [49]).
as §3, §4

CBR1 = target: T1, CBR1 (Rattus norvegicus, UniProt P47727); assay: CBR1 activity in rat liver subcellular fraction; conditions: 100 µM sesquiterpene, control 21.7 ± 1.6
T1 construct: Frozen liver (both rat and human) was thawed; from tissue; host or cells: rat liver cytosolic fraction
T1 sequence (P47727 1-277): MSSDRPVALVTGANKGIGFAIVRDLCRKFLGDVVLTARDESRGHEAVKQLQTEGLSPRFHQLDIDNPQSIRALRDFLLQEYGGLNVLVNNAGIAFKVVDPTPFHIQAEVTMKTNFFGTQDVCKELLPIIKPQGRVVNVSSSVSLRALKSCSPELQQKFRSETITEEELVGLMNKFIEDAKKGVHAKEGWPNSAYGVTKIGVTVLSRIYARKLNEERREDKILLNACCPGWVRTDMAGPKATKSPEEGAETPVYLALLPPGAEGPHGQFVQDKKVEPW
Protocol: as §1, §8, §3, §4

NQO1 = target: T2, NQO1 (Homo sapiens, UniProt P15559); assay: NQO1 activity in human liver subcellular fraction; conditions: 100 µM sesquiterpene, control 6.38 ± 0.34
T2 construct: Frozen liver (both rat and human) was thawed; from tissue; host or cells: human liver cytosolic fraction
Protocol: as §1, §8, §3, §4

CYP1A2 = target: T3, CYP1A2 (Homo sapiens, UniProt P05177); assay: CYP1A2 (EROD activity, 7-ethoxyresorufin O-deethylation) in human liver microsomes; conditions: for Specific Activity, CYP1A2 (EROD activity): in the presence of 100 µM sesquiterpene, control 1.88 ± 0.19; for inhibition at 5 µM: liver microsomes, probe 7-ethoxyresorufin, human, 5 µM inhibitor
T3 construct: Frozen liver (both rat and human) was thawed; from tissue; host or cells: human liver microsomal fraction
T3 sequence (P05177 1-516): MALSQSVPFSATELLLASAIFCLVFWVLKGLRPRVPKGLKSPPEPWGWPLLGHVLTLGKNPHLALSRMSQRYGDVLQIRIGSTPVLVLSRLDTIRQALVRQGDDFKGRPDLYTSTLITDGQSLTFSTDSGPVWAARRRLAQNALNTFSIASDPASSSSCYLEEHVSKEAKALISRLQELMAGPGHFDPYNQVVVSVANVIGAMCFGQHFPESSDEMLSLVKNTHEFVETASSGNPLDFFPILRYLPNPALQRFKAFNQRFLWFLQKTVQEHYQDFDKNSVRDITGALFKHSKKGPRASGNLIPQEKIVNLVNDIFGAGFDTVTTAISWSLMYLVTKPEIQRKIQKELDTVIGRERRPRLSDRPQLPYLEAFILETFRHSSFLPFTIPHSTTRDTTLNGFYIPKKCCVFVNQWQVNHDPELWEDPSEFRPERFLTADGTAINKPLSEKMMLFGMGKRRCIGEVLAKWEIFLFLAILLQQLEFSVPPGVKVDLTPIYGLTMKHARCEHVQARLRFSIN
Protocol: as §1, §2
Sesquiterpenes CNER, TNER and FAR, non-volatile liquids, were pipetted, and proper concentration was calculated according to density. All compounds were dissolved in DMSO. […] All experiments were performed in three replicates, if not stated otherwise.
as §4
as §5, with “Their final concentrations in the reaction mixture were proposed to cover the entire inhibitory range of these compounds (1–100 µM).” left out
as §6, §7

T2 sequence (P15559 whole entry): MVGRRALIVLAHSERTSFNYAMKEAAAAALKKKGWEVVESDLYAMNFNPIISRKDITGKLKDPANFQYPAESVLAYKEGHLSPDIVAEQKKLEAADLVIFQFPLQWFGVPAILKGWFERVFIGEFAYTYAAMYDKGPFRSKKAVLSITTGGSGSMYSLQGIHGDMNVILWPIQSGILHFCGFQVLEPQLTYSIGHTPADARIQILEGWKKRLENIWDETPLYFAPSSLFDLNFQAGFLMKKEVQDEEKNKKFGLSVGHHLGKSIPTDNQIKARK

SMILES	IC50 (CYP2B/3A; rat liver microsomes) [µM]	Specific Activity, CYP2B/3A (BROD activity) (CYP2B/3A; rat liver microsomes) [pmol/mg/min]	Specific activity, AKR1C (AKR1C) [nmol/mg/min]	Specific activity, CBR1 (CBR1) [nmol/mg/min]	Specific activity, NQO1 (NQO1) [nmol/mg/min]	IC50 (CYP1A2; human liver microsomes) [µM]	Specific Activity, CYP1A2 (EROD activity) (CYP1A2; human liver microsomes) [pmol/mg/min]	inhibition at 5 µM (CYP1A2) [%]	K’M (CYP2B/3A; rat liver microsomes, benzyloxyresorufin 0.5–5.0 µM in the presence of TNER 5 µM, KM without TNER 0.74 ± 0.12) [µM]	V’MAX (CYP2B/3A; rat liver microsomes, benzyloxyresorufin 0.5–5.0 µM in the presence of TNER 5 µM, VMAX without TNER 7.04 ± 0.35) [nM/min]	type of inhibition, BROD activity (CYP2B/3A; rat microsomes, 5 µM TNER, benzyloxyresorufin 0.5–5.0 µM)	Ki (CYP1A2; human liver microsomes, EROD activity) [µM]	type of inhibition, CYP1A2 (EROD) (CYP1A2; human microsomes, 5 µM TNER, ethoxyresorufin 0.5–5.0 µM)
C=CC(C)(O)CC/C=C(/C)CCC=C(C)C (stereo not drawn) [CNER, cis-nerolidol]	6.47	0.331 ± 0.009	22.7 ± 1.5	19.5 ± 1.4	5.44 ± 0.82	2.49	0.163 ± 0.005	50					
CC(C)=CCC/C(C)=C/CC/C(C)=C/CO [FAR, farnesol]	4.43	0.212 ± 0.003	24.0 ± 1.5	21.1 ± 1.4	5.23 ± 1.03	1.83	0.083 ± 0.005	77					
C=CC(C)(O)CC/C=C(\C)CCC=C(C)C (stereo not drawn) [TNER, trans-nerolidol]	5.11	0.153 ± 0.008	21.4 ± 1.0	20.5 ± 1.6	5.53 ± 0.51	8.69	0.287 ± 0.013	38	1.26 ± 0.39	0.81 ± 0.09	non-competitive	0.92 ± 0.52	competitively
